In brackets after ≈: the same amount, converted by molar mass.
Assays:
Type in all cases: cell-based
[1] = tested on: Staphylococcus aureus (ATCC 43300); test: Antibacterial MIC, broth microdilution (CLSI); details: for MIC80: Staphylococcus aureus, ATCC43300, read-out: MIC80 S. aureus; for S. aureus Selectivity Indices, Group: SI, IC50 (μM)/MIC80 (μM), HEK293 cytotoxicity
[2] = tested on: Enterococcus faecalis (ATCC 51299); test: Antibacterial MIC, broth microdilution (CLSI); details: for MIC80: Enterococcus faecalis, ATCC51299, read-out: MIC80 E. faecalis; for E. faecalis Selectivity Indices, Group: SI, IC50 (μM)/MIC80 (μM), HEK293 cytotoxicity
[3] = tested on: Escherichia coli (ATCC 25922); test: Antibacterial MIC, broth microdilution (CLSI); details: for MIC80: Escherichia coli, ATCC25922, read-out: MIC80 E. coli
[4] = tested on: T. vaginalis; test: Trichomonas resorufin assay; details: for T. vaginalis Selectivity Indices, Group: SI, IC50 (μM)/IC50 (μM), HEK293 cytotoxicity; for IC50: Trichomonas vaginalis, read-out: IC50 T. vaginalis

| Compound | MIC80 [1] [µM] | MIC80 [2] [µM] | MIC80 [3] [µM] | further results |
| --- | --- | --- | --- | --- |
| CCNC(=O)c1cc(NC(=O)c2cc(NC(=O)c3ccc(/C=C/c4cnc5ccccc5c4)cc3)cn2C)cn1C [IVa6, (E)-N-ethyl-1-methyl-4-(1-methyl-4-(4-(2-(quinolin-3-yl)vinyl)benzamido)-1H-pyrrole-2-carboxamido)-1H-pyrrole-2-carboxamide] | < 5 | < 5 | > 100 | E. faecalis Selectivity Indices, Group ([2]; Amides): B (Group B: 0.4 < SI <= 1.5); T. vaginalis Selectivity Indices, Group ([4]; Amides): B (Group B: 0.25 < SI <= 0.5); IC50 [4]: 1 to 5 µM |
| Cn1cc(NC(=O)c2ccc(/C=C/c3cnc4ccccc4c3)cc2)cc1C(=O)Nc1cc(C(=O)N2CCCCC2)n(C)c1 [IVb1, (E)-1-methyl-N-(1-methyl-5-(piperidine-1-carbonyl)-1H-pyrrol-3-yl)-4-(4-(2-(quinolin-3-yl)vinyl)benzamido)-1H-pyrrole-2-carboxamide] | 25 to 100 (≈ 14.7 to 58.7 µg/mL) | > 100 | > 100 | IC50 [4]: 5 to 50 µM |
| CNC(=N)CCNC(=O)c1cc(NC(=O)c2cc(NC(=O)c3ccc(/C=C/c4cccc(OC)c4)cc3)cn2C)cn1C [Ia56, (E)-N-(3-imino-3-(methylamino)propyl)-4-(4-(4-(3-methoxystyryl)benzamido)-1-methyl-1H-pyrrole-2-carboxamido)-1-methyl-1H-pyrrole-2-carboxamide] | 5 to 25 (≈ 2.91 to 14.5 µg/mL) | 5 to 25 (≈ 2.91 to 14.5 µg/mL) | > 100 |  |
| Cn1cc(NC(=O)c2cc(NC(=O)c3ccc(/C=C/c4cnc5ccccc5c4)cc3)cn2C)cc1C(=O)NCC/C(=N/CC(F)F)NCC(F)F [Ia57, N—((Z)-3-((2,2-difluoroethyl)amino)-3-((2,2-difluoroethyl)imino)propyl)-1-methyl-4-(1-methyl-4-(4-((E)-2-(quinolin-3-yl)vinyl)benzamido)-1H-pyrrole-2-carboxamido)-1H-pyrrole-2-carboxamide] | < 5 | 5 to 25 (≈ 3.58 to 17.9 µg/mL) | > 100 |  |
| COCCNC(=N)CCNC(=O)c1cc(NC(=O)c2cc(NC(=O)c3ccc(/C=C/c4cnc5ccccc5c4)cc3)cn2C)cn1C [Ia58, (E)-N-(3-imino-3-((2-methoxyethyl)amino)propyl)-1-methyl-4-(1-methyl-4-(4-(2-(quinolin-3-yl)vinyl)benzamido)-1H-pyrrole-2-carboxamido)-1H-pyrrole-2-carboxamide] | < 5 | 5 to 25 (≈ 3.23 to 16.2 µg/mL) | > 100 |  |
| C/N=C(/CCNC(=O)c1cc(NC(=O)c2cc(NC(=O)c3ccc(/C=C/c4ccc(F)c(OC)c4)nc3)cn2C)cn1C)NC [Ia59, 6-((E)-4-fluoro-3-methoxystyryl)-N-(1-methyl-5-((1-methyl-5-(((Z)-3-(methylamino)-3-(methylimino)propyl)carbamoyl)-1H-pyrrol-3-yl)carbamoyl)-1H-pyrrol-3-yl)nicotinamide] | < 5 | > 100 | > 100 |  |
| C/N=C(/CCNC(=O)c1cc(NC(=O)c2cc(NC(=O)c3ccc(/C=C/c4cncnc4)cc3)cn2C)cn1C)NC [Ia60, 1-methyl-4-(1-methyl-4-(4-((E)-2-(pyrimidin-5-yl)vinyl)benzamido)-1H-pyrrole-2-carboxamido)-N—((Z)-3-(methylamino)-3-(methylimino)propyl)-1H-pyrrole-2-carboxamide] | < 5 | 5 to 25 (≈ 2.84 to 14.2 µg/mL) | > 100 |  |
| C/N=C(/CCNC(=O)c1cc(NC(=O)c2cc(NC(=O)c3ccc(/C=C/c4cccc(C(F)(F)F)c4)nc3)cn2C)cn1C)NC [Ia61, N-(1-methyl-5-((1-methyl-5-(((Z)-3-(methylamino)-3-(methylimino)propyl)carbamoyl)-1H-pyrrol-3-yl)carbamoyl)-1H-pyrrol-3-yl)-6-((E)-3-(trifluoromethyl)styryl)nicotinamide] | 5 to 25 (≈ 3.17 to 15.9 µg/mL) | 5 to 25 (≈ 3.17 to 15.9 µg/mL) | > 100 |  |
| Cn1cc(NC(=O)c2cc(NC(=O)c3ccc(/C=C/c4cnc5ccccc5c4)cc3)cn2C)cc1C(=O)NCCC(=N)NCC(F)F [Ia62, (E)-N-(3-((2,2-difluoroethyl)amino)-3-iminopropyl)-1-methyl-4-(1-methyl-4-(4-(2-(quinolin-3-yl)vinyl)benzamido)-1H-pyrrole-2-carboxamido)-1H-pyrrole-2-carboxamide] | < 5 | < 5 | > 100 |  |
| CN(C)c1ccc(/C=C/c2ccc(C(=O)Nc3cc(C(=O)Nc4cc(C(=O)NCCC(=N)NCC(F)F)n(C)c4)n(C)c3)cn2)cc1 [Ia63, (E)-N-(5-((5-((3-((2,2-difluoroethyl)amino)-3-iminopropyl)carbamoyl)-1-methyl-1H-pyrrol-3-yl)carbamoyl)-1-methyl-1H-pyrrol-3-yl)-6-(4-(dimethylamino)styryl)nicotinamide] | < 5 | 25 to 100 (≈ 16.1 to 64.6 µg/mL) | > 100 |  |
| [H]/N=C(\CCNC(=O)c1cc(NC(=O)c2cc(NC(=O)c3ccc(C=Cc4ccc(N(C)C)cc4)nc3)cn2C)cn1C)N1CCSCC1 [Ib9, (E)-6-(4-(dimethylamino)styryl)-N-(5-((5-((3-imino-3-thiomorpholinopropyl)carbamoyl)-1-methyl-1H-pyrrol-3-yl)carbamoyl)-1-methyl-1H-pyrrol-3-yl)nicotinamide] | < 5 | 25 to 100 (≈ 16.7 to 66.8 µg/mL) | > 100 |  |
| [H]/N=C(\CCNC(=O)c1cc(NC(=O)c2cc(NC(=O)c3ccc(C=Cc4ccc(N(C)C)cc4)nc3)cn2C)cn1C)N1CCN(C)CC1 [Ib10, (E)-6-(4-(dimethylamino)styryl)-N-(5-((5-((3-imino-3-(4-methylpiperazin-1-yl)propyl)carbamoyl)-1-methyl-1H-pyrrol-3-yl)carbamoyl)-1-methyl-1H-pyrrol-3-yl)nicotinamide] | 5 to 25 (≈ 3.32 to 16.6 µg/mL) | > 100 | > 100 |  |
| [H]/N=C(\CCNC(=O)c1cc(NC(=O)c2cc(NC(=O)c3ccc(C=Cc4ccc(N(C)C)cc4)nc3)cn2C)cn1C)N1CCOCC1 [Ib11, (E)-6-(4-(dimethylamino)styryl)-N-(5-((5-((3-imino-3-morpholinopropyl)carbamoyl)-1-methyl-1H-pyrrol-3-yl)carbamoyl)-1-methyl-1H-pyrrol-3-yl)nicotinamide] | < 5 | 5 to 25 (≈ 3.26 to 16.3 µg/mL) | > 100 |  |
| CCCCCCCCCCCCCCCCCC[N+](C)(C)CCNC(=O)c1cc(NC(=O)c2cc(NC(=O)c3ccc(/C=C/c4cnc5ccccc5c4)cc3)cn2C)cn1C [Ic17, (E)-N,N-dimethyl-N-(2-(1-methyl-4-(1-methyl-4-(4-(2-(quinolin-3-yl)vinyl)benzamido)-1H-pyrrole-2-carboxamido)-1H-pyrrole-2-carboxamido)ethyl)octadecan-1-aminium] |  |  |  | IC50 [4]: > 50 µM |
| COCCOCCOCC[N+](C)(C)CCNC(=O)c1cc(NC(=O)c2cc(NC(=O)c3ccc(/C=C/c4cnc5ccccc5c4)cc3)cn2C)cn1C [Ic19, (E)-2-(2-(2-methoxyethoxy)ethoxy)-N,N-dimethyl-N-(2-(1-methyl-4-(1-methyl-4-(4-(2-(quinolin-3-yl)vinyl)benzamido)-1H-pyrrole-2-carboxamido)-1H-pyrrole-2-carboxamido)ethyl)ethan-1-aminium] | < 5 | 5 to 25 | > 100 |  |
| CCCCCC[N+]1(CCNC(=O)c2cc(NC(=O)c3cc(NC(=O)c4ccc(/C=C/c5cnc6ccccc6c5)cc4)cn3C)cn2C)CCOCC1 [Id1, (E)-4-hexyl-4-(2-(1-methyl-4-(1-methyl-4-(4-(2-(quinolin-3-yl)vinyl)benzamido)-1H-pyrrole-2-carboxamido)-1H-pyrrole-2-carboxamido)ethyl)morpholin-4-ium] | < 5 | > 100 | > 100 |  |
| CCCCCCC[N+]1(CCNC(=O)c2cc(NC(=O)c3cc(NC(=O)c4ccc(/C=C/c5cnc6ccccc6c5)cc4)cn3C)cn2C)CCOCC1 [Id2, (E)-4-heptyl-4-(2-(1-methyl-4-(1-methyl-4-(4-(2-(quinolin-3-yl)vinyl)benzamido)-1H-pyrrole-2-carboxamido)-1H-pyrrole-2-carboxamido)ethyl)morpholin-4-ium] | < 5 | > 100 | > 100 |  |
| Cn1cc(NC(=O)c2cc(NC(=O)c3ccc(/C=C/c4ccc(C(F)(F)F)cc4)cc3)cn2C)cc1C(=O)NCCC(=N)N [Ref-6, reference compound] |  |  |  | S. aureus Selectivity Indices, Group ([1]; Alkyl Amidines and NH Pyrroles): A (Group A: SI < 3); E. faecalis Selectivity Indices, Group ([2]; Alkyl Amidines and NH Pyrroles): A (Group A: SI < 3); T. vaginalis Selectivity Indices, Group ([4]; Alkyl Amidines and NH Pyrroles): A (Group A: SI < 8) |
| CN(C)CCNC(=O)c1cc(NC(=O)c2cc(NC(=O)c3ccc(/C=C/c4cnc5ccccc5c4)cc3)cn2C)cn1C [Ref-7, (E)-N-(2-(dimethylamino)ethyl)-1-methyl-4-(1-methyl-4-(4-(2-(quinolin-3-yl)vinyl)benzamido)-1H-pyrrole-2-carboxamido)-1H-pyrrole-2-carboxamide, reference compound] |  |  |  | S. aureus Selectivity Indices, Group ([1]; Alkyl Amidines and NH Pyrroles): A (Group A: SI < 3); S. aureus Selectivity Indices, Group ([1]; Quaternary ammoniums): A (Group A: SI < 2); E. faecalis Selectivity Indices, Group ([2]; Alkyl Amidines and NH Pyrroles): A (Group A: SI < 3); E. faecalis Selectivity Indices, Group ([2]; Quaternary ammoniums): A (Group A: SI < 0.7); T. vaginalis Selectivity Indices, Group ([4]; Alkyl Amidines and NH Pyrroles): A (Group A: SI < 8); T. vaginalis Selectivity Indices, Group ([4]; Quaternary ammoniums): A (Group A: SI < 0.8) |
| N-(5-((5-(((Z)-3-(ethylamino)-3-(ethylimino)propyl)carbamoyl)-1-methyl-1H-pyrrol-3-yl)carbamoyl)-1-methyl-1H-pyrrol-3-yl)-6-((E)-3-methoxystyryl)nicotinamide [Ia26] |  |  |  | MIC80 S. aureus ([1]; MIC at 80% inhibition, ATCC 43300): * (* means 25 μM < MIC80 <= 100 μM); MIC80 E. faecalis ([2]; MIC at 80% inhibition, ATCC 51299): — (— means MIC80 > 100 μM); MIC80 E. coli ([3]; MIC at 80% inhibition, ATCC 25922): — (— means MIC80 > 100 μM) |

From patent US20250313546A1, “NUCLEIC ACID BINDERS” (UNIVERSITY OF STRATHCLYDE, priority 2022, published 2025)
